{"source": "patent US12304909B2", "about": "“Compounds and their use in therapy” (IMPERIAL COLLEGE INNOVATIONS LIMITED, priority 2018, dated 2025)", "key": {"human NMT1 (HsNMT1)": {"target": "T1, human NMT1 (HsNMT1) (Homo sapiens, UniProt P30419)", "T1 sequence (P30419 1-496)": "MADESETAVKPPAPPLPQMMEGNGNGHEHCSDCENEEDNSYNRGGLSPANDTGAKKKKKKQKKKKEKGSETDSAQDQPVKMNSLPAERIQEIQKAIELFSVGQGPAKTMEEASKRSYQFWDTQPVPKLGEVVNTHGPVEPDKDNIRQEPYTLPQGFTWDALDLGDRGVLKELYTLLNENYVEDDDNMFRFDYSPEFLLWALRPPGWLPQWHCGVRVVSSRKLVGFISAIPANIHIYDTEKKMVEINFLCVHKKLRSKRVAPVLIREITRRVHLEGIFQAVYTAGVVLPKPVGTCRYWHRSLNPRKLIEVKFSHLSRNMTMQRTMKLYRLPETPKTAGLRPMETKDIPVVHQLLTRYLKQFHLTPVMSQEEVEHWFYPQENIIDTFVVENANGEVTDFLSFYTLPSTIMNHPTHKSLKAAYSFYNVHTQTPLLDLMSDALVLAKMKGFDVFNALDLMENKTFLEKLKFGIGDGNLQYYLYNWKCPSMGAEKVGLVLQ", "assay": "HsNMT1 IC50, fluorescence-based assay detecting CoA with CPM", "type": "biochemical", "procedure": "The IC50 values for human NMT1 (HsNMT1) of four Example compounds of the invention described above (Examples 1-4) and six comparative examples (Comparative Examples 1, 2, 3, 4, 5 and 6) were measured using a sensitive fluorescence-based assay based on detection of CoA by 7-diethylamino-3-(4-maleimido-phenyl)-4-methylcoumarin, as described in Goncalves, V., et al., Analytical Biochemistry, 2012, 421, 342-344 and Goncalves, V., et al., J. Med. Chem, 2012, 55, 3578."}, "MRC5 cells": {"test_system": "MRC5 cells", "assay": "Metabolic activity assay (MTS assay), MRC5", "type": "cell-based, human", "conditions": "Homo sapiens, MRC5, 72 h", "procedure": "Example NMT inhibitors of the present invention were tested for activity in an in vitro metabolic activity assay using the human cell line MRC5. Comparative Examples 1, 2, 3, 4, 5 and 6 were also tested in the same metabolic activity assay. Compounds having activity in inhibiting metabolic activity in the assay are expected to be useful as agents for preventing and/or treating cancer, by virtue of being inhibitors of human NMT1 and/or NMT2.\nMRC5 cells (obtained from Dr David Mann's group, Imperial College; cell type: fibroblasts cells which derive from normal lung tissue) were grown in DMEM media (supplemented with 10% FBS) and were seeded in a 96-well plate, 24 h prior to treatment. Cell suspensions were prepared by adjusting the cell density to the appropriate concentration (as stated in the Table 1 below) and 50 μL of the cell suspension was transferred to wells B-G in columns 2-11 of a 96-well plate.\n100 μL of growth media (DMEM media) containing 0.2% DMSO was added to wells B-G in columns 2 and 11 as positive controls, and 100 μl of growth media containing Puromycin (3 μg/mL; final concentration in the plate 2 μg/mL) was added to wells B-G in column 3 as a negative control. Seven concentrations of NMT inhibitor stock solution were prepared for each Example (Example 1 and 2) and each Comparative Example (Comparative Examples 1, 2, 3, 4, 5 and 6) tested (same final percentage of DMSO, dilution factor=3 starting from 15 μM or 150 μM). 100 μL of inhibitor stock solution was added to wells B-G in columns 4-10 of a 96-well plate (final concentration of Example compound or Comparative Example compound in the plate starting from 10 μM or 100 μM; total volume in each well was 150 μL). The plate was incubated at 37° C. with 5% CO2 level.\nAfter 72 h, 20 μL MTS reagent (Promega, prepared according to the supplier protocol) was added to each well of the 96-well plate. The plate was incubated at 37° C. for 2 h and the absorbance per well was measured at 490 nm with an EnVision plate reader. The average absorbance value of the negative control (Puromycin-treated cells) was subtracted from each value and the metabolic activity was calculated as a percentage relative to the positive control (DMSO-treated cells). EC50 values were calculated using GraphPad."}, "Mouse half life in vivo": {"assay": "Mouse half life in vivo", "conditions": "plasma; mouse oral half-life; male CD-1 mice, 10 mg/kg po; read-out: Rat or mouse t ½ (mouse) (converted)", "procedure": "Example Compound 1, and Comparative Examples 2 and 3 were tested for metabolic stability in male Sprague-Dawley rats. Comparative Example 5 was tested for metabolic stability in male CD-1 mice. Compounds having good metabolic stability in rats or mice are expected to be especially useful as agents for preventing and/or treating cancer, by having a long half-life in human patients.\nSame as rat protocol except that CD-1 mice were dosed at 5 mg/kg iv and 10 mg/kg po."}, "[1]": {"assay": "Human liver microsomes half life", "type": "in vitro ADME", "conditions": "pH 7.4, read-out: Human liver microsomes t ½", "procedure": "Example Compound 1 was tested for metabolic stability in an assay using human liver microsomes. Comparative Examples 2, 3, 4, 5 and 6 were also tested in the same assay. Compounds having good metabolic stability in the assay are expected to be especially useful as agents for preventing and/or treating cancer, by having a long half-life in human patients\nFrozen human liver microsomes obtained from Corning, USA (cat #452117) were thawed and diluted with 100 mM of pH 7.4 phosphate buffer to give a 1 mg/ml solution. An NADPH regeneration system (NRS) was prepared as a solution containing 13 mM NADP, 33 mM glucose-6-phosphate, 33 mM MgCl2 and 4U/mL glucose-6-phosphate dehydrogenase in 100 mM of pH7.4 phosphate buffer. The test compound (4 mM) in DMSO was diluted with acetonitrile to provide a 100 μM sub-stock then further diluted with 100 mM of pH7.4 phosphate buffer to provide a 2 μM working solution. The liver microsome solution and NRS were incubated at 37° C. before use. To each well of the test plate was dispensed 60 μL of buffer, 50 μL of test compound solution and 10 μL of NRS. A reaction was initiated by addition of 40 μL of liver microsome solution. Wells were incubated for an appropriate time (0, 5, 10, 20, 30 and 60 min) then quenched with 300 μL of acetonitrile containing reference standards atenolol, propranolol, diclofenac, verapamil). All plates were centrifuged at 3500 rpm for 20 min at 15° C. to pellet the debris. 110 μL supernatant was diluted 110 μL water and quantitated using LC-MS/MS.\nThe results were used to calculate the % Remaining of the test compound at time point t=100×˜[(AUC at time point t)/(AUC at T=0)]. A linear regression curve was fitted to a plot of natural logarithm (In) of AUC against time. The T-half (min)=0.693/slope."}}, "data": [{"smiles": "Cc1nn(C)c(C)c1CCOc1cc(F)ccc1-c1ccc2c(c1)c(CN(C)C)nn2C", "note": "[Comparative Example 5, 1-(5-(4-fluoro-2-(2-(1,3,5-trimethyl-1H-pyrazol-4-yl)ethoxy)phenyl)-1-methyl-1H-indazol-3-yl)-N,N-dimethylmethanamine]", "values": [{"measurement": "IC50", "setting": "human NMT1 (HsNMT1)", "result": 0.013, "unit": "µM"}, {"measurement": "EC50", "setting": "MRC5 cells", "result": 27, "unit": "µM"}, {"measurement": "half-life", "setting": "Mouse half life in vivo", "result": 42, "unit": "min"}, {"measurement": "half-life at 0.625 µM", "setting": "[1]", "result": 7, "unit": "min"}]}]}
